Assay results reported in article PMC10714399, “Open Source Antibiotics: Simple Diarylimidazoles Are Potent against Methicillin-Resistant Staphylococcus aureus” (ACS Infectious Diseases, 2023).
In brackets after ≈: the same amount, converted by molar mass. Read-outs that look alike come from different tables or passages of the source.

Key:
[1] = test system: Enterococcus faecalis ATCC 51299 (vanA-positive; vancomycin-resistant); assay: In vitro antibacterial activity, MIC (UCL), VRE; format: cell-based
Experimental: (§1) Staphylococcus aureus NCTC 13373 (mecA-positive; methicillin-resistant, NCTC 13373) was supplied by the National Collection of Type Cultures (NCTC), Public Health England, United Kingdom. Other organisms, S. aureus ATCC 25923 (methicillin-susceptible) and Enterococcus faecalis ATCC 51299 (vanA-positive; vancomycin-resistant), were obtained from the American Type Culture Collection (ATCC) via LGC Standards, UK. A suspension of each organism was prepared from an overnight plate culture (tryptone soya agar) in phosphate-buffered saline (PBS) and adjusted to an absorbance reading at 600 nm of 0.1, which is approximately equivalent to 1 × 10^8 colony-forming units (CFU) per mL. The cultures were further diluted 1:100 in isosensitest broth (Oxoid, United Kingdom) before 100 μL was used to inoculate each well of a 96-well plate that contained diluted samples of the OSA series. Compounds were evaluated over a 2-fold dilution range from 32 to 0.03 μg/mL. Stocks of the samples were prepared in 100% DMSO at […] before being diluted in isosenstitest broth. The highest concentration of DMSO present was 2%, which has been previously shown not to inhibit the growth of the microorganisms (data not shown). […] Vancomycin was used as a quality control compound.

[2] = test system: Staphylococcus aureus NCTC 13373 (mecA-positive; methicillin-resistant); assay: In vitro antibacterial activity, MIC (UCL School of Pharmacy assay), MRSA; format: cell-based; conditions: for MIC: Staphylococcus aureus
Experimental: as §1

[3] = test system: S. aureus ATCC 25923 (methicillin-susceptible); assay: In vitro antibacterial activity, MIC (UCL), MSSA; format: cell-based, Staphylococcus aureus; conditions: for MIC: Staphylococcus aureus, read-out: MSSA MIC
Experimental: as §1

Row | Structure (SMILES) | MIC ([1]; read-out: VRE MIC (UCL)) [µg/mL] | MIC ([2]; UCL, read-out: MRSA MIC (UCL)) [µg/mL] | MRSA MIC [2] [µg/mL] | further results
1 | Cc1ccn2c(NC3CCCC3)c(-c3ccc(N(C)C)cc3)nc2c1 [OSA_000840] | > 32 | > 32 | – | –
2 | c1ccn2c(NC3CCCC3)c(-c3nccs3)nc2c1 [OSA_000845] | > 32 | > 32 | – | –
3 | Cc1ccn2c(Nc3ccc(F)cc3)c(-c3ccc(N(C)C)cc3)nc2c1 [OSA_000846] | > 32 | > 32 | – | –
4 | c1ccc(-c2nc3ccccn3c2N2CCOCC2)nc1 [OSA_000850] | > 32 | > 32 | – | –
5 | c1ccc(-c2nc3ncccn3c2-c2ccc3occc3c2)nc1 [OSA_000863] | > 32 | > 32 | – | –
6 | c1ncc(-c2nc3n(c2-c2ccc4occc4c2)CCC3)cn1 [OSA_000874] | > 32 | > 32 | – | –
7 | CC(=O)c1ccc(-c2c(-c3ccccn3)nc3n2CCC3)cc1 [OSA_000973] | > 32 | > 32 | – | –
8 | Cc1ccccc1-c1c(-c2ccccn2)nc2n1CCC2 [OSA_000977] | 32 (≈ 116 µM) | 32 (≈ 116 µM) | – | –
9 | Cc1ccn2c(NC3CCCC3)c(-c3ccc(N(C)C)cc3)nc2c1 [compound 840] | – | – | > 32 | VRE MIC [1]: > 32 µg/mL
10 | c1ccn2c(NC3CCCC3)c(-c3nccs3)nc2c1 [compound 845] | – | – | > 32 | VRE MIC [1]: > 32 µg/mL
11 | Cc1ccn2c(Nc3ccc(F)cc3)c(-c3ccc(N(C)C)cc3)nc2c1 [compound 846] | – | – | > 32 | VRE MIC [1]: > 32 µg/mL
12 | Cn1ccnc1-c1nc2ccccn2c1Nc1ccc(F)cc1 [compound 847] | – | – | – | MIC ([1]; read-out: VRE MIC): > 32 µg/mL; MIC ([2]; read-out: MRSA MIC): > 32 µg/mL
13 | COc1ccc(-c2nc3ccc(C)cn3c2NCc2ccco2)cc1OC.Cl [compound 849] | – | – | > 32 | VRE MIC [1]: > 32 µg/mL
14 | c1ccc(-c2nc3ccccn3c2N2CCOCC2)nc1 [compound 850] | – | – | > 32 | VRE MIC [1]: > 32 µg/mL
15 | CN1CCN(c2ccc(-c3c(-c4ccccn4)nc4ccccn34)cc2)CC1 [compound 1012] | – | – | – | MIC [3]: > 32 µg/mL; MIC ([2]; read-out: MRSA MIC): > 32 µg/mL
16 | Cc1ccc(-c2c(-c3ccccn3)nc3cc(C#N)ccn23)cc1 [compound 1013] | – | – | > 32 | MSSA MIC [3]: > 32 µg/mL
17 | Cc1ccc(-c2c(-c3ccccn3)nc3cc(N4CCNCC4)ccn23)cc1 [compound 1014] | – | – | > 32 | MSSA MIC [3]: > 32 µg/mL
18 | Cc1ccc(-c2c(-c3ccccn3)nc3cc(C(N)=O)ccn23)cc1 [compound 1015] | – | – | > 32 | MSSA MIC [3]: > 32 µg/mL

Row | Structure (SMILES) | MIC ([1]; read-out: VRE MIC (UCL)) [µg/mL] | MIC ([2]; UCL, read-out: MRSA MIC (UCL)) [µg/mL] | MRSA MIC [2] [µg/mL] | further results
19 | N#Cc1ccc(C(=O)Nc2c(-c3ccccn3)nc3ccccn23)cc1 [compound 1016] | – | – | – | MIC [3]: > 32 µg/mL; MIC ([2]; read-out: MRSA MIC): > 32 µg/mL
20 | Cc1ccc(C(=O)Nc2c(-c3ccccn3)nc3ccccn23)cc1 [compound 1017] | – | – | – | MIC [3]: > 32 µg/mL; MIC ([2]; read-out: MRSA MIC): > 32 µg/mL
21 | COc1ccc(-c2nc3ccccn3c2Nc2ccc(F)cc2)nc1 [compound 1022] | – | – | – | MIC [3]: 8 µg/mL (≈ 23.9 µM); MIC ([2]; read-out: MRSA MIC): 8 µg/mL (≈ 23.9 µM)
22 | CC(C)CN(c1ccc(F)cc1)c1c(-c2ccccn2)nc2cc(F)ccn12 [compound 1023] | – | – | 8 | MSSA MIC [3]: 4 µg/mL
23 | CC(C)CN(c1ccc(F)cc1)c1c(-c2ccccn2)nc2ccc(F)cn12 [compound 1024] | – | – | 8 | MSSA MIC [3]: 8 µg/mL
24 | COc1cccc(-c2nc3ccccn3c2N(CC(C)C)c2ccc(F)cc2)n1 [compound 1025] | – | – | > 32 | MSSA MIC [3]: > 32 µg/mL
25 | CC(C)CN(c1ccc(F)cc1)c1c(-c2ccccn2)nc2cnccn12 [compound 1035] | – | – | – | MIC [3]: > 32 µg/mL; MIC ([2]; read-out: MRSA MIC): > 32 µg/mL
26 | CC(C)CN(c1ccc(F)cc1)c1c(-c2ccccn2)nc2cccnn12 [compound 1036] | – | – | – | MIC [3]: 32 µg/mL (≈ 88.5 µM); MIC ([2]; read-out: MRSA MIC): 32 µg/mL (≈ 88.5 µM)
27 | CC(C)CN(c1ccc(F)cc1)c1c(-c2ccccn2)nc2ccc(S(C)(=O)=O)cn12 [compound 1037] | – | – | > 32 | MSSA MIC [3]: > 32 µg/mL
28 | CC(C)CN(c1ccc(F)cc1)c1c(-c2ccccn2)nc2ncccn12 [compound 1038] | – | – | – | MIC [3]: 8 µg/mL (≈ 22.1 µM); MIC ([2]; read-out: MRSA MIC): 6 µg/mL (≈ 16.6 µM)
29 | CC(C)CN(c1ccc(F)cc1)c1c(-c2ccccn2)nc2ccncn12 [compound 1039] | – | – | – | MIC [3]: > 32 µg/mL; MIC ([2]; read-out: MRSA MIC): > 32 µg/mL
30 | CC(C)CN(Cc1c(-c2ccccn2)nc2ccccn12)c1ccc(F)cc1 [compound 1040] | – | – | – | MIC [3]: > 32 µg/mL; MIC ([2]; read-out: MRSA MIC): 32 µg/mL (≈ 85.5 µM)
31 | N#Cc1ccc(-c2nc(-c3ccccn3)c[nH]2)cc1 [compound 1102] | – | – | > 32 | MSSA MIC [3]: > 32 µg/mL
32 | N#Cc1ccc(-c2c(-c3ccccn3)nc3cccnn23)cc1 [compound 1103] | – | – | > 32 | MSSA MIC [3]: > 32 µg/mL
33 | N#Cc1ccc(-c2c(-c3ccccn3)nc3ccccn23)cc1 [compound 1104] | – | – | > 32 | MSSA MIC [3]: > 32 µg/mL
34 | N#Cc1ccc(-c2c(-c3ccccn3)nc3ncccn23)cc1 [compound 1105] | – | – | > 32 | MSSA MIC [3]: > 32 µg/mL
35 | N#Cc1ccc(-c2c(-c3ccccn3)nc3cnccn23)cc1 [compound 1106] | – | – | > 32 | MSSA MIC [3]: > 32 µg/mL
36 | N#Cc1ccc(-c2c(-c3ncccn3)nc3ccccn23)cc1 [compound 1107] | – | – | > 32 | MSSA MIC [3]: > 32 µg/mL

Further lines, with some results ahead:

Row | MIC ([1]; read-out: VRE MIC (UCL)) [µg/mL] | MIC ([2]; UCL, read-out: MRSA MIC (UCL)) [µg/mL] | MRSA MIC [2] [µg/mL] | Structure (SMILES) | further results
37 | > 32 | 16 (≈ 47.7 µM) | – | COc1ccn2c(Nc3ccc(F)cn3)c(-c3ccccn3)nc2c1 [OSA_000839] | –
38 | 16 (≈ 44.6 µM) | 8 (≈ 22.3 µM) | – | Cc1ccc2nc(-c3ccccn3)c(Nc3ccc4c(c3)OCCO4)n2c1 [OSA_000841] | –
39 | > 32 | > 32 | – | COc1ccn2c(Nc3cccc(F)c3)c(-c3cscn3)nc2c1 [OSA_000843] | –
40 | > 32 | > 32 | – | CN(C)Cc1ccc2nc(-c3ccccn3)c(Nc3cccc(F)c3)n2c1 [OSA_000844] | –
41 | > 32 | > 32 | – | Cn1ccnc1-c1nc2ccccn2c1Nc1ccc(F)cc1 [OSA_000847] | –
42 | > 32 | > 32 | – | COc1ccn2c(Nc3cccc(F)c3)c(-c3cn(C)cn3)nc2c1 [OSA_000848] | –
43 | > 32 | > 32 | – | COc1ccc(-c2nc3ccc(C)cn3c2NCc2ccco2)cc1OC [OSA_000849] | –
44 | > 32 | > 32 | – | COCc1ccc2nc(-c3ccccn3)c(Nc3cccc(F)c3)n2c1 [OSA_000852] | –
45 | > 32 | > 32 | – | COc1ccn2c(NCc3cn(C)cn3)c(-c3ccccn3)nc2c1 [OSA_000853] | –
46 | > 32 | > 32 | – | COc1ccn2c(Nc3ccnc(C)c3)c(-c3ccccn3)nc2c1 [OSA_000854] | –
47 | > 32 | > 32 | – | COc1ccn2c(Nc3ccc4c(c3)OCCO4)c(-c3c[nH]cn3)nc2c1 [OSA_000866] | –
48 | > 32 | > 32 | – | COc1ccc2nc(-c3c[nH]cn3)c(Nc3ccc4c(c3)OCCO4)n2c1 [OSA_000867] | –
49 | – | – | 16 | COc1ccn2c(Nc3ccc(F)cn3)c(-c3ccccn3)nc2c1.O=CO [compound 839] | VRE MIC [1]: > 32 µg/mL
50 | – | – | 8 | Cc1ccc2nc(-c3ccccn3)c(Nc3ccc4c(c3)OCCO4)n2c1 [compound 841] | VRE MIC [1]: 16 µg/mL
51 | – | – | > 32 | COc1ccn2c(Nc3cccc(F)c3)c(-c3cscn3)nc2c1.O=CO [compound 843] | VRE MIC [1]: > 32 µg/mL
52 | – | – | > 32 | CN(C)Cc1ccc2nc(-c3ccccn3)c(Nc3cccc(F)c3)n2c1 [compound 844] | VRE MIC [1]: > 32 µg/mL
53 | – | – | > 32 | COc1ccn2c(Nc3cccc(F)c3)c(-c3cn(C)cn3)nc2c1 [compound 848] | VRE MIC [1]: > 32 µg/mL
54 | – | – | > 32 | COCc1ccc2nc(-c3ccccn3)c(Nc3cccc(F)c3)n2c1 [compound 852] | VRE MIC [1]: > 32 µg/mL
